According to the supplement of paper PMC8671470:

Experiments:
Settings in all cases: 72 h
[1] = system: NOMO-1
Summary of the method: (§1)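 In 384-well plates holding acoustically pre-printed compounds at five tenfold doses from 1 to 10,000 nM, in duplicate, fifteen myeloid leukaemia cell lines were grown in RPMI 1640 for 72 h at 37 °C with 5% CO2. Luminescent ATP viability was scaled between vehicle and a positive control at 10 µM. The IC50 was then taken from log-logistic dose–response fits with four parameters.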

[2] = system: MV4-11
Summary of the method: as §1

[3] = system: KU-812
Summary of the method: as §1

[4] = system: MOLM-13
Summary of the method: as §1

[5] = system: HEL
Summary of the method: as §1

[6] = system: K-562
Summary of the method: as §1

[7] = system: Mono-Mac-6
Summary of the method: as §1

[8] = system: LAMA-84
Summary of the method: as §1

[9] = system: ML-2
Summary of the method: as §1

[10] = system: KCL-22
Summary of the method: as §1

[11] = system: SHI-1
Summary of the method: as §1

[12] = system: KG-1
Summary of the method: as §1

[13] = system: THP-1
Summary of the method: as §1

[14] = system: HL-60
Summary of the method: as §1

[15] = system: BV-173
Summary of the method: as §1

[16] = system: KCL-22; assay: cell viability (% survival relative to DMSO control, bortezomib = 0%); higher = less cytotoxic
Summary of the method: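 Fifteen myeloid leukaemia cell lines (10 AML, 5 CML) were seeded at a density titrated to the linear growth range. They went into 384-well plates with compounds pre-printed at 1, 10, 100, 1000 or 10000 nM in duplicate. After 72 h at 37 °C with 5% CO2, viability was read by CellTiter-Glo luminescence. Values are percent survival, with vehicle set to 100% and a 10 µM positive control to 0%, averaged over the duplicates.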

| Structure (SMILES) | IC50 (cell viability) [1] [µM] | IC50 (cell viability) [2] [µM] | IC50 (cell viability) [3] [µM] | IC50 (cell viability) [4] [µM] | IC50 (cell viability) [5] [µM] | IC50 (cell viability) [6] [µM] | IC50 (cell viability) [7] [µM] | IC50 (cell viability) [8] [µM] | IC50 (cell viability) [9] [µM] | IC50 (cell viability) [10] [µM] | IC50 (cell viability) [11] [µM] | IC50 (cell viability) [12] [µM] | IC50 (cell viability) [13] [µM] | IC50 (cell viability) [14] [µM] | IC50 (cell viability) [15] [µM] | cell viability ([16]; 1 nM) [%] | cell viability ([16]; 10 nM) [%] | cell viability ([16]; 100 nM) [%] | cell viability ([16]; 1000 nM) [%] | cell viability ([16]; 10000 nM) [%] |
| --- | --- | --- | --- | --- | --- | --- | --- | --- | --- | --- | --- | --- | --- | --- | --- | --- | --- | --- | --- | --- |
| Clc1ccc2c(c1Cl)CNCC2 | > 10 | > 10 | > 10 | > 10 | > 10 | > 10 | > 10 | > 10 | > 10 | > 10 | > 10 | > 10 | > 10 | > 10 | > 10 | 101 | 120 | 92.2 | 108 | 91.5 |
| O=C(O)C(S)=Cc1c[nH]c2ccc(F)cc12 | > 10 | > 10 | > 10 | > 10 | > 10 | > 10 | > 10 | > 10 | > 10 | > 10 | > 10 | > 10 | > 10 | > 10 | > 10 | 111 | 94.6 | 102 | 112 | 101 |
| CC(C)Cc1sc(N)nc1-c1ccc(P(=O)(O)O)o1 | > 10 | > 10 | > 10 | > 10 | > 10 | > 10 | > 10 | > 10 | > 10 | > 10 | > 10 | > 10 | > 10 | > 10 | > 10 | 95.8 | 108 | 108 | 112 | 101 |
| Cl.OC[C@H]1NC[C@@H](O)[C@@H](O)[C@@H]1O [1-Deoxymannojirimycin hydrochloride] | > 10 | > 10 | > 10 | > 10 | > 10 | > 10 | > 10 | > 10 | > 10 | > 10 | > 10 | > 10 | > 10 | > 10 | > 10 | 95.9 | 86.8 | 96.4 | 111 | 105 |
| CN(C)c1nc(O)c2[nH]cnc2n1 [2-Dimethylamino-6-hydroxypurine] | > 10 | > 10 | > 10 | > 10 | > 10 | > 10 | > 10 | > 10 | > 10 | > 10 | > 10 | > 10 | > 10 | > 10 | > 10 | 98.2 | 81.3 | 106 | 99 | 87.1 |
| O=C(O)c1cc2sccc2[nH]1 [4H-thieno[3,2-b]pyrrole-5-carboxylic acid] | > 10 | > 10 | > 10 | > 10 | > 10 | > 10 | > 10 | > 10 | > 10 | > 10 | > 10 | > 10 | > 10 | > 10 | > 10 | 90.3 | 104 | 84.7 | 101 | 99.8 |
| [N-]=[N+]=CC(=O)CC[C@H](N)C(=O)O [6-Diazo-5-oxo-L-norleucine] | > 10 | > 10 | > 10 | > 10 | > 10 | > 10 | > 10 | > 10 | > 10 | > 10 | > 10 | > 10 | > 10 | > 10 | > 10 | 94.7 | 104 | 109 | 109 | 101 |
| Sc1ncnc2nc[nH]c12 [6-mercaptopurine] | 0.441 | 0.332 | 2.51 | 0.907 | 1.91 | 0.732 | 1.03 | 1.33 | 1.1 | 1.01 | 1.52 | > 10 | > 10 | 0.964 | 0.527 | 92.6 | 89.7 | 105 | 52 | 8.81 |
| O=C(O)CC[C@H](NC(=O)c1ccc([N+](=O)[O-])cc1)C(=O)O [(S)-2-(4-Nitrobenzamido)pentanedioic acid] | > 10 | > 10 | > 10 | > 10 | > 10 | > 10 | > 10 | > 10 | > 10 | > 10 | > 10 | > 10 | > 10 | > 10 | > 10 | 93.4 | 98.1 | 107 | 95.5 | 90.8 |
| O=C1Nc2ccccc2/C1=C\NCCc1ccc(O)c(O)c1 [AC1NZZMF] | > 10 | > 10 | > 10 | > 10 | > 10 | > 10 | > 10 | > 10 | > 10 | > 10 | > 10 | > 10 | > 10 | > 10 | > 10 | 79.2 | 90.9 | 102 | 106 | 94.3 |
| Cc1ccc(S(=O)(=O)NC2c3ccccc3Oc3ccccc32)cc1 [AH-7614] | > 10 | > 10 | > 10 | > 10 | > 10 | > 10 | > 10 | > 10 | > 10 | > 10 | > 10 | > 10 | > 10 | > 10 | > 10 | 75.6 | 84 | 128 | 101 | 80.8 |
| C[C@]12CC[C@H](O)CC1=CC[C@@H]1[C@@H]2CC[C@]2(C)C(c3cccnc3)=CC[C@@H]12 [Abiraterone] | > 10 | > 10 | > 10 | > 10 | > 10 | > 10 | > 10 | > 10 | > 10 | > 10 | > 10 | > 10 | > 10 | > 10 | > 10 | 99.6 | 92 | 111 | 112 | 87.2 |
| O=C(COc1ccc(C(=O)c2ccccc2)cc1)NC1CCN(Cc2ccccc2)CC1 [AdipoRon] | > 10 | > 10 | 8.38 | > 10 | > 10 | > 10 | > 10 | > 10 | > 10 | > 10 | > 10 | 9.73 | > 10 | > 10 | 7.82 | 102 | 110 | 102 | 108 | 76.3 |
| CCOC(=O)[C@H]1O[C@@H]1C(=O)N[C@@H](CC(C)C)C(=O)NCCC(C)C [Aloxistatin] | 5.52 | > 10 | > 10 | > 10 | > 10 | > 10 | > 10 | > 10 | > 10 | > 10 | > 10 | > 10 | > 10 | > 10 | > 10 | 98.4 | 89.2 | 102 | 99.5 | 87.3 |
| N[C@](CCCCB(O)O)(CCN1CCCCC1)C(=O)O [Arginase inhibitor 1] | > 10 | > 10 | > 10 | > 10 | > 10 | > 10 | > 10 | > 10 | > 10 | > 10 | > 10 | > 10 | > 10 | > 10 | > 10 | 97 | 84.6 | 104 | 102 | 90.9 |
| Cc1noc2c1-c1ccccc1C(c1ccc(Cl)cc1)=N[C@H]2CC(N)=O [CPI-0610] | 0.349 | 0.146 | 0.422 | 0.274 | 1.52 | 0.377 | 0.142 | 1.59 | 1.26 | 0.624 | 0.5 | 0.135 | 0.765 | 0.2 | 0.538 | 123 | 94.6 | 91.3 | 49 | 27.7 |
| Nc1ccn([C@@H]2O[C@H](CO)[C@@H](O)[C@@H]2O)c(=O)n1 [Cytarabine] | 2.29 | 0.566 | 0.034 | 0.0806 | 0.0478 | 0.092 | 0.364 | 0.0585 | 0.0681 | 0.0389 | 0.135 | 0.116 | 4.77 | 0.43 | 0.00472 | 108 | 91.6 | 26.6 | 14.2 | 9.51 |
| CCOc1ccc(Cc2cc([C@@H]3O[C@H](CO)[C@@H](O)[C@H](O)[C@H]3O)ccc2Cl)cc1 [Dapagliflozin] | > 10 | > 10 | > 10 | > 10 | > 10 | > 10 | > 10 | > 10 | > 10 | > 10 | > 10 | > 10 | > 10 | > 10 | > 10 | 116 | 109 | 54.2 | 96.7 | 107 |
| CCN(CC)CCN(Cc1ccc(-c2ccc(C(F)(F)F)cc2)cc1)C(=O)Cn1c(SCc2ccc(F)cc2)nc(=O)c2c1CCC2 [Darapladib] | 2.82 | 3.36 | 1.98 | 2.15 | 2.63 | 1.64 | 2.9 | 2.23 | 2.62 | 2.32 | 2.59 | 2.42 | 2.94 | 2.07 | 2.15 | 112 | 113 | 114 | 86.3 | -0.547 |
| O=C(O)C(Cl)Cl [Dichloroacetate] | > 10 | > 10 | > 10 | > 10 | > 10 | > 10 | > 10 | > 10 | > 10 | > 10 | > 10 | > 10 | > 10 | > 10 | > 10 | 101 | 97.7 | 93.4 | 92.1 | 102 |
| O=C1Oc2ccccc2C(=O)C1CC1C(=O)Oc2ccccc2C1=O (stereo not given) [Dicumarol] | > 10 | > 10 | > 10 | > 10 | > 10 | > 10 | > 10 | > 10 | > 10 | > 10 | > 10 | > 10 | > 10 | > 10 | > 10 | 96.6 | 97.3 | 107 | 107 | 102 |
| CC12CCC(O)CC1CCC1C2CCC2(C)C(C3=CC(=O)OC3)CCC12O (stereo not given) [Digitoxigenin] | 0.437 | 0.323 | 0.368 | 0.122 | 0.336 | 0.184 | 0.213 | 0.234 | 0.35 | 0.331 | 0.358 | 0.264 | 0.286 | 0.338 | 0.24 | 94.5 | 102 | 98.9 | 3.66 | -0.896 |
| C[C@H]1O[C@@H](O[C@H]2[C@@H](O)C[C@H](O[C@H]3[C@@H](O)C[C@H](O[C@H]4CC[C@@]5(C)[C@H](CC[C@@H]6[C@@H]5C[C@@H](O)[C@]5(C)[C@@H](C7=CC(=O)OC7)CC[C@]65O)C4)O[C@@H]3C)O[C@@H]2C)C[C@H](O)[C@@H]1O [Digoxin] | 0.123 | 0.0402 | 0.0647 | 0.034 | 0.102 | 0.0855 | 0.0424 | 0.0546 | 0.0386 | 0.0555 | 0.0453 | 0.0639 | 0.0752 | 0.0342 | 0.0361 | 99.1 | 95.3 | 25 | 0.788 | 0.361 |
| O=c1c2ccccc2[se]n1-c1ccccc1 [Ebselen] | > 10 | > 10 | > 10 | > 10 | > 10 | > 10 | > 10 | > 10 | > 10 | > 10 | > 10 | > 10 | > 10 | > 10 | > 10 | 103 | 97.8 | 104 | 96.5 | 93.1 |
| Clc1ccc(COC(Cn2ccnc2)c2ccc(Cl)cc2Cl)cc1 (stereo not given) [Econazole] | > 10 | 1.08 | 7.24 | 0.925 | > 10 | 2.39 | > 10 | > 10 | 8.94 | 6.71 | > 10 | 6.84 | > 10 | 3.64 | 2.28 | 116 | 91.2 | 96.9 | 84.2 | 54.8 |
